For assay [1], the system named is LSBD1 tumour. As to the kind of experiment: PDT-induced LSBD1 tumour growth delay in BDIX rats. The format is in vivo. The settings on record: 400 J. How it is done: Data are shown in two animals models, the rat and the mouse. […] Growth delay measures the additional time taken for a treated tumour to grow to a given size, compared with an untreated tumour. Zero growth delay signifies no effect and growth delays of 5 days or longer imply substantial PDT activity.
(1) PDT-Induced LSBD1 Tumour Growth Delay in BDIX Rats
Tumour growth delay is calculated as the number of days for treated tumour to reach a mean diameter of 15 mm minus the number of days for a control tumour to reach a mean diameter of 15 mm. Data for various compounds are shown in Table 2, which also indicates the times (drug-light interval) at which effects occurred.

For assay [2], the system named is RIF-1 (murine fibrosarcoma) cells. Description: Phototoxicity towards cells in culture (photocytotoxic activity in killing RIF-1 cells). It is filed as cell-based. The settings on record: concentration causing 50% cell death in two hours of illumination.
Excerpt: [Phot]=Zinc Phthalocyanine; n=4; LD50 is the concentration of drug needed to cause 50% cell death in two hours of illumination
The subject of assay [3] is red blood cells. The following applies: J. Photochem. Photobiol B: Biology., 45 (1998) 28-35; cited from earlier work.
The test system of assay [4] is RIF-1 tumour cells. Description: In vitro photodynamic activity, RIF-1 tumour cells, cell kill by MTT assay after 665 nm laser radiation. The settings on record: for Light: LD50 (average) / Dark: cell kill: RIF-1 tumour cells, MTT assay; for Light: LD50 (average): 665 nm laser radiation for a fixed time; for Dark: cell kill: no light. It is filed as cell-based, murine. The protocol:
In vitro photodynamic activity for zinc phthalocyanine-2-(N-2-carboxyethyl)sulphonamide compared with Zinc phthalocyanine tetrasulphonic acid. The sensitiser was tested by incubation with RIF-1 tumour cells at various dose rates, and measuring the cell kill by MTT assay after exposure to 665 nm laser radiation for a fixed time. The results were compared with zinc phthalocyanine tetrasulphonic acid as a control, and were expressed as the LD50 value for the sensitisers.
A general note: Formazan colour is commonly taken as a measure of viable cells.

Setting [5] is: drug-light interval 4 h, 10 mg/kg, 680 nm phthalocyanines / 630 nm PHP.
Where [6] appears, read: drug-light interval 24 h, 10 mg/kg, 680 nm phthalocyanines / 630 nm PHP.
The mark [7] stands for this setting: drug-light interval 48 h, 10 mg/kg, 680 nm phthalocyanines / 630 nm PHP.
[8] abbreviates: drug-light interval 24 h, 5 mg/kg, 680 nm.
[9] abbreviates: drug-light interval 48 h, 5 mg/kg, 680 nm.

With “tetrasulphonylamino butyric acid zinc (II) phthalocyanine [TSZnPc-aminobutyric acid]”, the Tumour growth delay in assay [1] (setting [5]) is 4.3 ± 1.44 days; in assay [1] (setting [6]), 7.83 ± 3.33 days; in assay [1] (setting [7]), 1.67 ± 1.53 days. In addition, the “2h LD50 (mean ± SD, n 3)” value in assay [2] amounted to 90 ± 30 µM.

As to “Tetrasulphonylaminoglycine zinc (II) phthalocyanine [TSZnPc-glycine]”, the Tumour growth delay is listed as 8.5 ± 3.5 days in assay [1] (drug-light interval 4 h, 5 mg/kg, 680 nm); 4.7 ± 0.75 days in assay [1] (setting [8]); 4.5 days in assay [1] (setting [9]). For the same substance, the “ability to effect haemolysis of red blood cells” value in assay [3] is recorded as “relatively poor”. Further, the “2h LD50 (mean ± SD, n 3)” value in assay [2] worked out at 142 ± 37 µM.

Regarding “zinc phthalocyanine tetrasulphonic acid [reference compound]”, in assay [4], the “Light: LD50 (average)” value is > 10 µM and the “Dark: cell kill” value is recorded as “no cell kill detectable”.

On to “zinc phthalocyanine-2-(N-2-carboxyethyl)sulphonamide”, for which, in assay [4], the “Light: LD50 (average)” value was determined as 0.2 µM and the “Dark: cell kill” value is on record as “no cell kill detectable”. In addition, in assay [4] (ratio of light LD50 values, RIF-1 cells), the “times more PDT active than the tetrasulphonic acid (in vitro)” value is on record as “at least 50 times”.

In the case of “tetrasulphonylamino valeric acid zinc (II) phthalocyanine [TSZnPc-aminovaleric acid]”, in assay [2], the “2h LD50 (mean ± SD, n 3)” value was found to be 125 ± 13 µM.

With “tetrasulphonylamino β-alanine zinc (II) phthalocyanine [TSZnPc-β-alanine]”, the Tumour growth delay is listed as 6 ± 0.62 days in assay [1] (drug-light interval 2 h, 10 mg/kg, 680 nm); 10 ± 2.62 days in assay [1] (setting [5]); 5.25 ± 1.59 days in assay [1] (drug-light interval 6 h, 10 mg/kg, 680 nm); 2 days in assay [1] (setting [8]); 2 days in assay [1] (setting [9]). For the same substance, the “2h LD50 (mean ± SD, n 3)” value in assay [2] was found to be 109 ± 31 µM.

With “tetrasulphonylamino caproic acid zinc (II) phthalocyanine [TSZnPc-aminocaproic acid]”, the “2h LD50 (mean ± SD, n 3)” value in assay [2] was 104 ± 14 µM.

On to “tetrasulphonylamino-α-alanine zinc (II) phthalocyanine [TSZnPc-α-alanine]”, for which the Tumour growth delay is listed as 4.33 ± 0.83 days in assay [1] (setting [5]), 6.67 ± 1.09 days in assay [1] (setting [6]) and 3.33 ± 0.73 days in assay [1] (setting [7]). The “2h LD50 (mean ± SD, n 3)” value in assay [2] worked out at 109 ± 39 µM.
